molecular target: T1, human GLP-1 receptor (Homo sapiens, UniProt P43220); assay: GLP-1R cAMP Assay (HitHunter cAMP accumulation); assay type: cell-based; settings: cAMP accumulation, CHO cells stably overexpressing human GLP-1 receptor, 30 min treatment; read-out: EC50
T1 construct: expressed in transfected cells
In short: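 CHO cells stably expressing human GLP-1R, 10,000 cells/well in HBSS with 10 mM HEPES and 625 μM IBMX, were mixed with anti-cAMP antibody reagent. Compound was applied as a 20-point dose response in triplicate for 30 min. After lysis and overnight detection, luminescence was read and dose-response curves analysed.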

T1 sequence (P43220 24-463): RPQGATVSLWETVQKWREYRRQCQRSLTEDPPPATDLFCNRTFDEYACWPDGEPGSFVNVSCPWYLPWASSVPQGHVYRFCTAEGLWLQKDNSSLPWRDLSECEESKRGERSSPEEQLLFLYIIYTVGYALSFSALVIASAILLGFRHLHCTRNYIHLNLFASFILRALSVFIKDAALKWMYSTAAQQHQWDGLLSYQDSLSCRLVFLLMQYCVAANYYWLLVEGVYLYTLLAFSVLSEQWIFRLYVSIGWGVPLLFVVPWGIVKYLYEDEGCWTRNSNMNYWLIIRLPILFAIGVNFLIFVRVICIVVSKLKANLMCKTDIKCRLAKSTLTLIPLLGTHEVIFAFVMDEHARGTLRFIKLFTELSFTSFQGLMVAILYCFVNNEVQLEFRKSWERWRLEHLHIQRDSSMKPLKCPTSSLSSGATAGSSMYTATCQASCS

| Structure (SMILES) | EC50 [nM] |
| --- | --- |
| O=C(O)c1ccc2nc(CN3CC[C@H](c4ccc(F)c(COc5ccc(Cl)cc5F)c4)C3)n(C[C@@H]3CCO3)c2c1 [Compound 448, 2-{[(3R)-3-{3-[(4-chloro-2-fluorophenoxy)methyl]-4-fluorophenyl}pyrrolidin-1-yl]methyl}-1-{[(2S)-oxetan-2-yl]methyl}-1H-1,3-benzodiazole-6-carboxylic acid] | 50 to 500 |
| N#Cc1ccc(OCc2cccc([C@H]3CCN(Cc4nc5ccc(C(=O)O)cc5n4C[C@@H]4CCO4)C3)c2)c(F)c1 [Compound 415, 2-{[(3R)-3-{3-[(4-cyano-2-fluorophenoxy)methyl]phenyl}pyrrolidin-1-yl]methyl}-1-{[(2S)-oxetan-2-yl]methyl}-1H-1,3-benzodiazole-6-carboxylic acid] | 50 to 500 |
| N#Cc1ccc(OCc2nc([C@H]3CCN(Cc4nc5ccc(C(=O)O)cc5n4C[C@@H]4CCO4)C3)ccc2F)c(F)c1 (single isomer, unassigned) [Compound 519] | < 50 |
| O=C(O)c1ccc2nc(CN3CC(Oc4ccnc(COc5ccc(Cl)cc5Cl)c4)C3)n(Cc3ccno3)c2c1 [Compound 236, 2-{[3-({2-[(2,4-dichlorophenoxy)methyl]pyridin-4-yl}oxy)azetidin-1-yl]methyl}-1-[(1,2-oxazol-5-yl)methyl]-1H-1,3-benzodiazole-6-carboxylic acid] | < 50 |
| O=C(O)c1ccc2nc(CN3CCC(Cn4ccc(COc5ccc(Cl)cc5Cl)n4)CC3)n(C[C@@H]3CCO3)c2c1 [Example 127, (S)-2-((4-((3-((2,4-dichlorophenoxy)methyl)-1H-pyrazol-1-yl)methyl)piperidin-1-yl)methyl)-1-(oxetan-2-ylmethyl)-1H-benzo[d]imidazole-6-carboxylic acid] | < 50 |
| N#Cc1ccc(OCc2cc([C@H]3CCN(Cc4nc5ccc(C(=O)O)cc5n4C[C@@H]4CCO4)C3)ccc2F)c(F)c1 [Compound 439, 2-{[(3R)-3-{3-[(4-cyano-2-fluorophenoxy)methyl]-4-fluorophenyl}pyrrolidin-1-yl]methyl}-1-{[(2S)-oxetan-2-yl]methyl}-1H-1,3-benzodiazole-6-carboxylic acid] | 50 to 500 |
| O=C(O)c1cc(F)c2nc(CN3CC[C@H](c4cccc(COc5ccc(Cl)cc5F)n4)C3)n(C[C@@H]3CCO3)c2c1 [Compound 442, 2-{[(3S)-3-{6-[(4-chloro-2-fluorophenoxy)methyl]pyridin-2-yl}pyrrolidin-1-yl]methyl}-4-fluoro-1-{[(2S)-oxetan-2-yl]methyl}-1H-1,3-benzodiazole-6-carboxylic acid] | < 50 |
| O=C(O)c1ccc2nc(CN3CC[C@H](Oc4ccnc(COc5ccc(C(F)F)cc5F)c4)C3)n(C[C@@H]3CCO3)c2c1 [Compound 298, 2-{[(3S)-3-[(2-{[4-(difluoromethyl)-2-fluorophenoxy]methyl}pyridin-4-yl)oxy]pyrrolidin-1-yl]methyl}-1-{[(2S)-oxetan-2-yl]methyl}-1H-1,3-benzodiazole-6-carboxylic acid] | < 50 |
| CCn1cncc1Cn1c(CN2CC[C@H](Oc3ccnc(COc4ccc(Cl)cc4Cl)c3)C2)nc2ccc(C(=O)O)cc21 [Example 244, (S)-2-((3-((2-((2,4-Dichlorophenoxy)methyl)pyridin-4-yl)oxy)pyrrolidin-1-yl)methyl)-1-((1-ethyl-1H-imidazol-5-yl)methyl)-1H-benzo[d]imidazole-6-carboxylic acid] | < 50 |
| O=C(O)c1ccc2nc(CN3CCC(c4cc(COc5ccc(Cl)cc5F)ccn4)C3)n(Cc3ncco3)c2c1 (stereo not shown) [Compound 398, 2-[(3-{4-[(4-chloro-2-fluorophenoxy)methyl]pyridin-2-yl}pyrrolidin-1-yl)methyl]-1-[(1,3-oxazol-2-yl)methyl]-1H-1,3-benzodiazole-6-carboxylic acid] | < 50 |
| O=C(O)c1ccc2nc(Cc3ccc(Oc4cccc(COc5ccc(Cl)cc5F)n4)cc3F)n(C[C@@H]3CCO3)c2c1 [Compound 464, 2-{[4-({6-[(4-chloro-2-fluorophenoxy)methyl]pyridin-2-yl}oxy)-2-fluorophenyl]methyl}-1-{[(2S)-oxetan-2-yl]methyl}-1H-1,3-benzodiazole-6-carboxylic acid] | < 50 |
| CCn1cncc1Cn1c(CN2C[C@H](Oc3cccc(COc4ccc(Cl)cc4Cl)c3)[C@@H]2C)nc2ccc(C(=O)O)cc21 [Example 233, 2-(((2S,3S)-3-(3-((2,4-Dichlorophenoxy)methyl)phenoxy)-2-methylazetidin-1-yl)methyl)-1-((1-ethyl-1H-imidazol-5-yl)methyl)-1H-benzo[d]imidazole-6-carboxylic acid] | < 50 |
| CCn1cncc1Cn1c(CN2CC(Cc3cnc(COc4ccc(Cl)cc4Cl)o3)C2)nc2ccc(C(=O)O)cc21 [Example 147, 2-((3-((2-((2,4-Dichlorophenoxy)methyl)oxazol-5-yl)methyl)azetidin-1-yl)methyl)-1-((1-ethyl-1H-imidazol-5-yl)methyl)-1H-benzo[d]imidazole-6-carboxylic acid] | < 50 |
| N#CCC1(Cn2c(CN3CC[C@@H](c4ccnc(COc5ccc(Cl)cc5F)c4)C3)nc3c(F)cc(C(=O)O)cc32)CC1 [Compound 432, 2-{[(3S)-3-{2-[(4-chloro-2-fluorophenoxy)methyl]pyridin-4-yl}pyrrolidin-1-yl]methyl}-1-{[1-(cyanomethyl)cyclopropyl]methyl}-4-fluoro-1H-1,3-benzodiazole-6-carboxylic acid] | < 50 |
| O=C(O)c1ccc2nc(CN3CC=C(c4ccc(F)c(COc5ccc(Cl)cc5Cl)c4)C3)n(C[C@@H]3CCO3)c2c1 [Compound 388, 2-[(3-{3-[(2,4-dichlorophenoxy)methyl]-4-fluorophenyl}-2,5-dihydro-1H-pyrrol-1-yl)methyl]-1-{[(2S)-oxetan-2-yl]methyl}-1H-1,3-benzodiazole-6-carboxylic acid] | < 50 |
| N#Cc1ccc(OCc2nccc(C3=CCN(Cc4nc5ccc(C(=O)O)cc5n4C[C@@H]4CCO4)C3)n2)c(F)c1 [Example 395, (S)-2-((3-(2-((4-Cyano-2-fluorophenoxy)methyl)pyrimidin-4-yl)-2,5-dihydro-1H-pyrrol-1-yl)methyl)-1-(oxetan-2-ylmethyl)-1H-benzo[d]imidazole-6-carboxylic acid] | < 50 |
| O=C(O)c1ccc2nc(CN3CC(Oc4ccnc(COc5ccc(F)cc5F)n4)C3)n(C[C@@H]3CCO3)c2c1 [Compound 550] | < 50 |
| CCn1cncc1Cn1c(Cc2ccc(Oc3cccc(COc4ccc(Cl)cc4F)n3)cc2F)nc2ccc(C(=O)O)cc21 [Compound 463, 2-{[4-({6-[(4-chloro-2-fluorophenoxy)methyl]pyridin-2-yl}oxy)-2-fluorophenyl]methyl}-1-[(1-ethyl-1H-imidazol-5-yl)methyl]-1H-1,3-benzodiazole-6-carboxylic acid] | < 50 |
| N#CCC1(Cn2c(CN3CC=C(c4ccc(F)c(COc5ccc(C#N)cc5F)n4)C3)nc3c(F)cc(C(=O)O)cc32)CC1 [Compound 424, 2-[(3-{6-[(4-cyano-2-fluorophenoxy)methyl]-5-fluoropyridin-2-yl}-2,5-dihydro-1H-pyrrol-1-yl)methyl]-1-{[1-(cyanomethyl)cyclopropyl]methyl}-4-fluoro-1H-1,3-benzodiazole-6-carboxylic acid] | < 50 |
